According to patent US5696113A, “Antipsychotic agents, compositions and method of use” (Hoechst Marion Roussel, Inc., priority 1996, dated 1997):
pIC50: −log10 of the molar value. Structures can show the parent of a compound that is named as a salt. Where two headings read alike, the source gives them in different places.

Legend:
apomorphine climbing = test: Climbing Mouse Assay (apomorphine-induced climbing); type: in vivo, mice (CK-1 male); settings: ip, read-out: CLIMBING MOUSE ASSAY (ED50 mg/kg, ip)
Procedure: Antipsychotic activity is determined in the climbing mice assay by a method similar to those described by P. Protais, et al, Psychopharmacol.
Subject […] male mice (23-27 grams) are group-housed under standard laboratory conditions. The mice are individually placed in wire mesh stick cages (4"×10") and are allowed one hour for adaption and exploration of the new environment.
For evaluation of climbing, 3 readings are taken at 10, 20, and 30 minutes after apomorphine administration according to the following scale:
Mice consistently climbing before the injection of apomorphine are discarded.
With full-developed apomorphine climbing, the animals are hanging on to the cage walls, rather motionless, over long periods of time. By contrast, climbs due to mere motor stimulation usually only last a few seconds.
The climbing scores are individually totaled (maximal score: 6 per mouse over 3 readings) and the total score of the control group (vehicle intraperitoneally, apomorphine subcutaneously) is set to 100%.

[1] = test system: postsynaptic dopamine receptors; test: Apomorphine stereotypy inhibition in rats (APO-S); type: in vivo, male Wistar rats; settings: ip, apomorphine 1.5 mg/kg s.c.
Procedure: APOMORPHINE STEREOTYPY INHIBITION IN RATS
For a primary screen, a group size of six is used. Drug is administered one hour prior to scoring and the animals are placed in individual clear plastic cages (24×14×13 cm). The control group receives vehicle. Apomorphine is prepared at a concentration of 15 mg/10 ml in a […] ascorbic acid stock solution prepared with 30 mg of ascorbic acid in 100 ml of 1% saline to increase the stability of the apomorphine while in solution. […] Stereotypic behavior is noted 10 minutes later. […] Stereotypic behavior is defined as sniffing, licking or chewing behavior which occurs in a repetitive manner and is continuous for a 10-second period in the presence of white noise. The animal is considered protected if this behavior is interrupted. The percent effectiveness of a drug is determined by the number of animals protected in each group.
A dose-response is determined in the same manner as a primary screen except that a group size of 10 is used and the animals are dosed in a randomized manner. One group receives vehicle. ED50 values for inhibition of stereotypy are calculated by means of Litchfield and Wilcoxon Analysis.

[2] = test system: dopamine neurons, ventral tegmental area (A10); test: Chronic single-unit dopamine neuron sampling, A10 region; type: in vivo, male Wistar rats; settings: ip, once a day for 21 days, vs vehicle; dose 20 mg/kg for the hydrobromide compound
Procedure: Dopamine Neuron Sampling.
Compounds were prepared as percent base.

[3] = test system: dopamine neurons, substantia nigra (A9); settings: repeated administration; background statement; cited from earlier work
[4] = test system: dopamine neurons, substantia nigra (A9); test: Chronic single-unit dopamine neuron sampling, A9 region; settings: for % Change in A9 region (dopamine neuron sampling): ip, once a day for 21 days, vs vehicle, dose 20 mg/kg for the hydrobromide compound
Procedure: Dopamine Neuron Sampling. Male Wistar rats (280-360 grams) were used in this procedure. They were housed for at least 48 hours in a climate-controlled vivarium with food and water continuously available. Each rat was initially anesthetized with chloral hydrate (400 mg/kg ip) and maintained with additional injections as needed throughout the experiment. The animal was mounted in a stereotaxic apparatus (Kopf, model 900). The cranium was exposed, cleaned of connective tissue and dried. The skull overlying both the substantia nigra [A9:anterior (A) 3000-3400 microns, lateral (L) 1800-2400 microns from lambda)] and the ventral tegmental area (A10: A3000-3400 microns, L 400-1000 microns from lambda)^47 was removed. Using the dura as a point of reference, a micropipette driven by a hydraulic microdrive was lowered through the opening in the skull at vertical 6000-8500 microns. Spontaneously firing dopamine neurons within both the substantia nigra and the ventral tegmental areas were counted by lowering the electrode into twelve separate tracks (each track separated from the other by 200 microns) in each region. The sequence of the tracks was kept constant, forming a block of tissue which could be repoducibly located from animal to animal.
Extracellular neuronal signals were sampled using a single barrel micropipette approximately one micron at its tip, and filled with 2M NaCl saturated with 1% pontamine sky blue dye. The in vitro impedance of this piper (measured with a Winston Electronics Co., BL-1000 Micro Electrode Tester) was between 5 and 10 megaohms. […] Only cells whose electrophysiological characteristics matched those previously established for midbrain dopamine neurons were counted.
At the end of each experiment, the location of the last recorded track tip was marked by passing 25 microampere cathodal current through the recording micropipette barrel for 15 minutes in order to deposit a spot of dye. The rat was sacrificed; the brain was then removed, dissected and frozen on a bed of dry ice. Frozen serial sections (20 microns in width) were cut, mounted, and stained with cresyl violet and examined using a light microscope.
Animals pretreated with vehicle prior to neuronal sampling served as controls. Compounds were prepared as percent base. Each compound was suspended in distilled water and one drop of Tween 80, and kept constantly agitated during dosing. All compounds were delivered at a dodge volume of 1 mg/kg by the intraperitoneal route. For animals used in the chronic single-unit, dopamine neuron sampling assay, the compounds were administered once a day for 21 days, and dopamine neuron sampling was begun two hours after the last dose on the 21st day. […]

[5] = biological target: T1, D2-Dopaminergic Site (striatal membranes) (Rattus norvegicus, UniProt P61169); test: 3H-Spiroperidol binding to striatal membranes (D2-dopaminergic site); set-up: species or system rats
T1 construct: from tissue; host or cells: rat striatum (membranes)
Procedure: (§1) D2 /5T-HT2 BINDING ASSAYS
^3 H-Spiroperidol Binding to Striatal Membranes (D2 -Dopaminergic Site) in Rats
Striatal membranes were incubated with ^3 H-spiroperidol (0.4 nM) and various concentrations of test drug at 37° C. for 10 minutes in 1 ml of 0.05 M Tris-HCl buffer, pH 7.7 containing 120 mM NaCl, 5 mM KCl, 2 mM CaCl2, and 1 mM MgCl2. Nonspecific binding was determined in the presence of 2μM(+)-butaclamol. Bound ligand was separated by rapid filtration through Whatman GF/B filters.

[6] = biological target: T2, 5HT2 Site (cerebral cortical membranes) (Rattus norvegicus, UniProt P14842); test: 3H-Spiroperidol binding to cerebral cortical membranes (5HT2 site); set-up: species or system rats; settings: 3H-spiroperidol 1.5 nM, 37° C., 10 min, pH 7.7
T2 construct: from tissue; host or cells: rat cerebral cortex (membranes)
Procedure: as §1
^3 H-Spiroperidol Binding to Cerebral Cortical membranes (5HT2 Site) in Rats
Nonspecific binding was determined in the presence of 5 μM methysergide. The incubation was terminated by rapid filtration through Whatman GF/B filters.

[7] = apomorphine 1.5 mg/kg s.c., linear regression

T1 sequence (P61169 whole entry): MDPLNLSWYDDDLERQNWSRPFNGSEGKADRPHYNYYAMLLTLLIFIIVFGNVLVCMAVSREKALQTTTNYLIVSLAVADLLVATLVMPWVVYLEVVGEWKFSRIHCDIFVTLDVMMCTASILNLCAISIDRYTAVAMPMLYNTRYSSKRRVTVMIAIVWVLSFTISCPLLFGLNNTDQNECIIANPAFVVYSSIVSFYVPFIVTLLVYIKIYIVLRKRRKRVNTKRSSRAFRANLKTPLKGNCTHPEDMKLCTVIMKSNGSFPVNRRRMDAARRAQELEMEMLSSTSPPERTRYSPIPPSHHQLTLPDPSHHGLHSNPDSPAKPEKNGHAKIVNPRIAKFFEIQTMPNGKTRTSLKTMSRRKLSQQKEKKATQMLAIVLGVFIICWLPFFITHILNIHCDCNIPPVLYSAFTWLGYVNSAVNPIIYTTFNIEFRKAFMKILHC
T2 sequence (P14842 whole entry): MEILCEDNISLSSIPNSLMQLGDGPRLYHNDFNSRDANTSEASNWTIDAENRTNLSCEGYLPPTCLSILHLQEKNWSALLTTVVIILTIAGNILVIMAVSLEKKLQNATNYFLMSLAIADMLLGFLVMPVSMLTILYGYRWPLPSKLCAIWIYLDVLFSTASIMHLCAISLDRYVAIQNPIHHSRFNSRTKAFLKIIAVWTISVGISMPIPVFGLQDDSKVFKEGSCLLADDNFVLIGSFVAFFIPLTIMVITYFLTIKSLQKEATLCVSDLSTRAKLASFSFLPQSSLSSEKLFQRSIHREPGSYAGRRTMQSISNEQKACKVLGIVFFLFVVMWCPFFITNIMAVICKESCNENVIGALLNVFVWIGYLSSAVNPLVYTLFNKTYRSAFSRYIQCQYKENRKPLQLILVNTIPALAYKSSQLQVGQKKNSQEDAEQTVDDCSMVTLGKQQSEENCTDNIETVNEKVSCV

Structure (SMILES)	ED50 (apomorphine climbing; [7])	APOMORPHINE STEREOTYPY INHIBITION (ED50) ([1]; Litchfield and Wilcoxon)	% Change in A10 region (dopamine neuron sampling) [2]	depolarization inactivation of the DA neurons in the A9 area [3]	% Change in A9 region (dopamine neuron sampling) [4]	ED50 (apomorphine climbing)	ED50 ([1]; Rattus norvegicus, Litchfield and Wilcoxon)	number of DA neurons in the A9 area (EPS propensity) ([4]; result in words)	APOMORPHINE STEREOTYPY INHIBITION (% inhibition) ([1]; at 4.0 mg/kg)	pIC50 ([5]; 3H-spiroperidol 0.4 nM, 37° C., 10 min, pH 7.7)	D2/5-HT2 ([5]; ratio of D2 IC50 to 5-HT2 IC50)	pIC50 [6]
O=C(CCCN1CCC(O)(c2ccc(Cl)cc2)CC1)c1ccc(F)cc1 [Haloperidol]	0.11 mg/kg	0.6 mg/kg	-35%	cause a depolarization inactivation of the DA neurons in the A9 area of the brain	-30%	–	–	–	–	–	–	–
CN1CCN(C2=Nc3cc(Cl)ccc3Nc3ccccc32)CC1 [Clozapine]	–	–	-79%	–	+37%	8.1 mg/kg	> 40 mg/kg	do not cause a decrease in the number of DA neurons in the A9 area	–	–	–	–
COc1ccc2c(N3CCN(CCCC(=O)c4ccc(F)cc4)CC3)noc2c1 [Example 1b, 3-[1-(4'-Fluorobenzoyl)propyl-4-piperazine]-6-methoxy-1,2-benzisoxazole]	5.28 mg/kg	–	–	–	–	–	–	–	–	–	–	–
O=C(CCCN1CCN(c2noc3cc(O)ccc23)CC1)c1ccc(F)cc1 [Example 3, 3-[1-(4'-Fluorobenzoyl)propyl-4-piperazinyl]-6-hydroxy-1,2-benzisoxazole hydrobromide]	0.4 mg/kg	–	-44.9%	–	+1.4%	–	–	–	0%	6.62	5.3	7.35
